Measured values from US20100266589A1, “ADJUVANT CANCER THERAPY” (priority 2009, published 2010).

Tested on: patients with resected stages II and III carcinoma of the colon
Assay: NSABP C-08 clinical trial: bevacizumab added to mFOLFOX6 as adjuvant therapy
Format: in vivo
From the text: This example concerns analysis of results obtained from colorectal cancer subjects treated in the National Surgical Adjuvant Breast and Bowel Project (NSABP C-08) clinical trial. The primary aim of the study was to determine the clinical benefit of adding bevacizumab to standard chemotherapy for treating colorectal cancer, as measured by disease-free survival (DFS). A secondary goal was to determine if there was clinical benefit in prolonging overall survival. The standard chemotherapy used in this trial was a combination of leucovorin, 5-fluorouracil and oxaliplatin. This trial evaluated the efficacy of bevacizumab (AVASTIN®) as adjuvant therapy for patients with resected stages II and III carcinoma of the colon.
In the NSABP C-08 trial, the following treatment protocol was used:
Arm A/Group 1: modified FOLFOX6 (mFOLFOX6: oxaliplatin (85 mg/m^2) with concurrent leucovorin (400 mg/m^2) and 5-FU (400 mg/m^2 IV bolus) on Day 1 and 5-FU (2400 mg/m^2) over 46 hours on Day 1 and Day 2) q 14 days for 12 cycles (6 months);
Arm B/Group 2: modified FOLFOX6 q 14 days for 12 cycles (6 months) plus bevacizumab administered before oxaliplatin on Day 1 of each chemotherapy cycle (5 mg/kg IV) q 14 days for 1 year.
The primary endpoint of this trial was duration of disease free survival (DFS). […]
2,710 patients were accrued to the study (1,356 to the contol arm and 1,354 to the experimental arm). 18 patients on the control arm and 20 patients on the experimental arm were not evaluated for efficacy due to no follow-up or positive surgical margins. […]
Time to an event was measured from randomization. All p-values, other than the primary endpoint, were evaluated as significant at the 0.05 level two-sided. […] Hazard ratios (HR) were calculated from Cox models and p-values from time to event were from the log rank test. […] Smooth estimates of the underlying hazard functions were calculated by the method of Muller and Wang (Biometrics 1994 50:61-76). Smooth estimates of the ratio of the underlying hazards were calculated by the method of Gilbert et al. (Biometrics 2002 58:773-80).

Q: With “Bevacizumab: recombinant humanized anti-VEGF monoclonal antibody; human IgG1 framework with CDRs from murine antibody A.4.6.1” as the substance, how does the HR (DFS, 1.25 years after initiation of treatment, vs mFOLFOX6 alone, 95% CI 0.48-0.78, p <0.0001) read?
A: The HR was 0.61.

Q: What about the “toxicities or adverse effects (in words)” value (added to chemotherapy vs chemotherapy alone) of the same substance?
A: The value was “not associated with any increased toxicities or adverse effects”.

Q: What about the “effect on DFS (in words)” value (added to chemotherapy vs chemotherapy alone, during the first year (active treatment phase)) of the same substance?
A: The value was “significantly increased DFS”.
